Measurements as given in ChEMBL document CHEMBL1144413 (J Med Chem, 2005).

What was measured:
[1] = molecular target: Aldo-keto reductase family 1 member B1 (Homo sapiens, UniProt P15121); experiment: In vitro inhibition of recombinant human aldose reductase expressed in Escherichia coli
[2] = molecular target: T1, Aldo-keto reductase family 1 member A1 (Homo sapiens, UniProt P14550); experiment: In vitro inhibition of recombinant human aldehyde reductase
T1 sequence (P14550 whole entry): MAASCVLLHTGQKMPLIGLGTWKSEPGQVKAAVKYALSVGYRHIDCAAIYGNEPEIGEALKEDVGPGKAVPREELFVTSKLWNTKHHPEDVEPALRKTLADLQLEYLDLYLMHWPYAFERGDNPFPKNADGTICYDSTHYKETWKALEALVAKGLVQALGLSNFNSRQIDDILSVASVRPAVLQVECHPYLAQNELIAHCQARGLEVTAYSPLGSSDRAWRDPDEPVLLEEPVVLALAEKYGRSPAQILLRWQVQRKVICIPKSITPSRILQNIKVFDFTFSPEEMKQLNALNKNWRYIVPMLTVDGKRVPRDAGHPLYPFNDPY

[3] = Area under the concentration time curve 0-24 h was determined in nonfasted rats after p.o. doses of 6 mg/kg/day; assay type: ADME, organism-based; design: dose 6 mg/kg/day, time < 24 hr, route oral; settings: rat, in vivo, po
[4] = organism: Rattus norvegicus
Description: Ability to lower elevated glucose levels in diabetic rats (streptozotocin treated) model at 1.4 mg/kg/day

[5] = Area under the concentration time curve 0-24 hr was determined in fasted rats after p.o. doses of 6 mg/kg/day; assay type: ADME, organism-based; design: time < 24 hr, dose 6 mg/kg/day, route oral; settings: rat, in vivo, po
[6] = Half-life was determined in fasted rats after i.v. doses of 10 mg/kg/day; assay type: ADME, organism-based; design: route intravenous; settings: rat, in vivo, iv
[7] = Half-life was determined in fasted rats after p.o. doses of 6 mg/kg/day; assay type: ADME, organism-based; design: route oral; settings: rat, in vivo, po
[8] = organism: Rattus norvegicus; remark: listed apart in the source
Description: Ability to lower elevated glucose levels in diabetic rats (streptozotocin treated) model at 0.95 mg/kg/day

[9] = test system: Rattus norvegicus; experiment: Inhibition of sorbitol accumulation in lens of diabetic rats (streptozotocin treated) done for 30 minutes at 22 degree C in dark by using sorbitol dehydrogenase at 10 mg/kg/day; assay type: functional; settings: Lens of camera-type eye, 0.5 h
[10] = test system: Rattus norvegicus; experiment: Fructose accumulation in 3 month diabetic rats (streptozotocin treated) done for 30 minutes at 22 degree C in dark by using sorbitol dehydrogenase at 5 mg/kg/day; assay type: functional
[11] = organism: Rattus norvegicus; settings: Plasma
Description: Ability to lower elevated plasma triglyceride levels in diabetic rats (streptozotocin treated) model at 4.8 mg/kg/day

[12] = Half-life was determined in nonfasted rats after p.o. doses of 6 mg/kg/day; assay type: ADME, organism-based; design: route oral; settings: rat, in vivo, po
[13] = Volume of distribution was determined in fasted rats after i.v. doses of 10 mg/kg/day; assay type: ADME, organism-based; design: route intravenous; settings: rat, in vivo, iv
[14] = Maximum plasma concentration was determined in fasted rats after p.o. doses of 6 mg/kg/day; assay type: ADME, organism-based; design: dose 6 mg/kg/day, route oral; settings: rat, in vivo, po
[15] = test system: Rattus norvegicus; experiment: Improvement in sorbitol accumulation in 3 month diabetic rats (streptozotocin treated) done for 30 minutes at 22 degree C in dark by using sorbitol dehydrogenase at 5 mg/kg/day; assay type: functional
[16] = organism: Rattus norvegicus; settings: Plasma; remark: listed apart in the source
Description: Ability to lower elevated plasma triglyceride levels in diabetic rats (streptozotocin treated) model at 1.4 mg/kg/day

[17] = Total body clearance was determined in fasted rats after p.o. doses of 6 mg/kg/day; assay type: ADME, organism-based; design: route oral; settings: rat, in vivo, po, read-out: ClT
[18] = Total body clearance was determined in fasted rats after i.v. doses of 10 mg/kg/day; assay type: ADME, organism-based; design: route intravenous; settings: rat, in vivo, iv, read-out: ClT
[19] = test system: Rattus norvegicus; experiment: Inhibition of sciatic nerve sorbitol accumulation in diabetic rats (streptozotocin treated) done for 30 minutes at 22 degree C in dark by using sorbitol dehydrogenase at 10 mg/kg/day; assay type: functional; settings: 0.5 h
[20] = Time require to reach maximum plasma concentration was determined in nonfasted rats after p.o. doses of 6 mg/kg/day; assay type: ADME, organism-based; design: route oral; settings: rat, po
[21] = organism: Rattus norvegicus; remark: listed apart in the source
Description: Ability to lower elevated glucose levels in diabetic rats (streptozotocin treated) model at 0.48 mg/kg/day

[22] = organism: Rattus norvegicus; settings: Plasma; remark: listed apart in the source
Description: Ability to lower elevated plasma triglyceride levels in diabetic rats (streptozotocin treated) model at 0.95 mg/kg/day

[23] = Time require to reach maximum plasma concentration was determined in fasted rats after i.v. doses of 10 mg/kg/day; assay type: ADME, organism-based; design: route intravenous; settings: rat, iv
[24] = Time require to reach maximum plasma concentration was determined in fasted rats after p.o. doses of 6 mg/kg/day; assay type: ADME, organism-based; design: route oral; settings: rat, po
[25] = organism: Rattus norvegicus; settings: Plasma; remark: listed apart in the source
Description: Ability to lower elevated plasma triglyceride levels in diabetic rats (streptozotocin treated) model at 0.48 mg/kg/day

[26] = organism: Rattus norvegicus; remark: listed apart in the source
Description: Ability to lower elevated glucose levels in diabetic rats (streptozotocin treated) model at 4.8 mg/kg/day

[27] = Maximum plasma concentration was determined in nonfasted rats after p.o. doses of 6 mg/kg/day; assay type: ADME, organism-based; design: dose 6 mg/kg/day, route oral; settings: rat, in vivo, po
[28] = test system: Rattus norvegicus; experiment: Myo-inositol accumulation in 3 month diabetic rats (streptozotocin treated) done for 30 minutes at 22 degree C in dark by using sorbitol dehydrogenase at 5 mg/kg/day; assay type: functional
[29] = organism: Rattus norvegicus; remark: listed apart in the source
Description: Sorbitol accumulation in 3 month diabetic rats (streptozotocin treated) done for 30 minutes at 22 degree C in dark by using sorbitol dehydrogenase at 5 mg/kg/day; BQL is Below quantifiable level

[30] = Total body clearance was determined in nonfasted rats after p.o. doses of 6 mg/kg/day; assay type: ADME, organism-based; design: route oral; settings: rat, in vivo, po, read-out: ClT
[31] = test system: Rattus norvegicus; experiment: Improvement in fructose accumulation in 3 month diabetic rats (streptozotocin treated) done for 30 minutes at 22 degree C in dark by using sorbitol dehydrogenase at 5 mg/kg/day; assay type: functional
[32] = Area under the concentration time curve 0-24 hr was determined in fasted rats after i.v. doses of 10 mg/kg/day; assay type: ADME, organism-based; design: time < 24 hr, dose 10 mg/kg/day, route intravenous; settings: rat, in vivo, iv
[33] = test system: Rattus norvegicus; experiment: Improvement in myo-inositol accumulation in 3 month diabetic rats (streptozotocin treated) done for 30 minutes at 22 degree C in dark by using sorbitol dehydrogenase at 5 mg/kg/day; assay type: functional
[34] = organism: Rattus norvegicus; remark: listed apart in the source
Description: Ability to lower elevated glucose levels in diabetic rats (streptozotocin treated) model at 1.9 mg/kg/day

[35] = organism: Rattus norvegicus; settings: Plasma; remark: listed apart in the source
Description: Ability to lower elevated plasma triglyceride levels in diabetic rats (streptozotocin treated) model at 1.9 mg/kg/day

[36] = Maximum plasma concentration was determined in fasted rats after i.v. doses of 10 mg/kg/day; assay type: ADME, organism-based; design: dose 10 mg/kg/day, route intravenous; settings: rat, in vivo, iv

**Q.** With `O=C(O)Cn1cc(Cc2nc3ccc(F)cc3s2)c2ccccc21` as the compound, how does the IC50 [1] read?
**A.** Its IC50 is 1 µM.

**Q.** With `O=C(O)Cn1cc(Cc2nc3cc(F)c(F)cc3s2)c2ccccc21` as the compound, how does the IC50 [1] read?
**A.** Its IC50 is 0.56 µM.

**Q.** What about the IC50 [2] of the same compound?
**A.** The IC50 was 13 µM.

**Q.** Which results are given for `O=C(O)Cn1cc(Cc2nc3c(F)c(F)cc(F)c3s2)c2ccccc21` [LIDORESTAT]?
**A.** AUC [3]: 72.8 ug equiv/h/mL; Level [4]: 427 mg/dL; AUC [5]: 43.5 ug equiv/h/mL; half-life [6]: 5.04 h; half-life [7]: 5.61 h; Level [8]: 430 mg/dL; inhibition in vivo at 10 mg/kg/day [9]: 77%; Accumulation [10]: 1.62 nM/mg of dry wt; Level [11]: 189 mg/dL; half-life [12]: 5.18 h; Vd [13]: 0.694 L/kg; Cmax [14]: 4.18 ug equiv/mL; Accumulation [15]: 100%; Level [16]: 242 mg/dL; CL/F [17]: 2.24 mL/min/kg; clearance [18]: 1.7 mL/min/kg; inhibition in vivo at 10 mg/kg/day [19]: 100%; Tmax [20]: 5 h; Level [21]: 432 mg/dL; Level [22]: 261 mg/dL; Tmax [23]: 4.8 min; Tmax [24]: 3.5 h; Level [25]: 301 mg/dL; Level [26]: 417 mg/dL; Cmax [27]: 6.09 µg equiv/mL; Accumulation [28]: 9.26 nM/mg of dry wt; Accumulation [29]: Below quantifiable level; CL/F [30]: 1.37 mL/min/kg; Accumulation [31]: 100%; AUC [32]: 97.1 ug equiv/h/mL; Accumulation [33]: 79%; Level [34]: 440 mg/dL; Level [35]: 218 mg/dL; Cmax [36]: 24 ug equiv/mL

**Q.** For `O=C(O)Cn1cc(Cc2nc3c(F)c(F)cc(F)c3s2)c2ccc(N3CCOCC3)cc21`, which IC50 [2] is on record?
**A.** The IC50 was 44 µM.

**Q.** With `CC(C(=O)O)n1cc(Cc2nc3c(F)c(F)cc(F)c3s2)c2ccccc21` (stereo not drawn) as the compound, how does the IC50 [1] read?
**A.** The IC50 was 0.163 µM.

**Q.** For `O=C(O)Cn1cc(Cc2nc3c(F)cccc3s2)c2ccccc21`, which IC50 [1] is on record?
**A.** The IC50 was 0.034 µM.

**Q.** What about the IC50 [2] of the same compound?
**A.** Its IC50 is 11 µM.

**Q.** Which IC50 [1] does the source give for `COc1ccc2c(c1)c(Cc1nc3c(F)c(F)cc(F)c3s1)cn2CC(=O)O` here?
**A.** Its IC50 is 0.008 µM.

**Q.** Which IC50 [1] does the source give for `O=C(O)Cn1cc(Cc2nc3c(F)cc(F)cc3s2)c2ccccc21` here?
**A.** Its IC50 is 0.69 µM.

**Q.** And the IC50 [2]?
**A.** Its IC50 is 5.1 µM.

**Q.** Which IC50 [1] does the source give for `Cc1ccc2c(Cc3nc4c(F)c(F)cc(F)c4s3)cn(CC(=O)O)c2c1` here?
**A.** Its IC50 is 0.01 µM.

**Q.** With `O=C(O)Cn1cc(Cc2nc3c(F)c(F)cc(F)c3s2)c2cc(Br)ccc21` as the compound, how does the IC50 [2] read?
**A.** The IC50 was 4.7 µM.

**Q.** With `Cc1ccc2c(c1)c(Cc1nc3cc(C(F)(F)F)ccc3s1)cn2CC(=O)O` as the compound, how does the IC50 [1] read?
**A.** The IC50 was 0.1 µM.

**Q.** And the IC50 [2]?
**A.** Its IC50 is 10.2 µM.

**Q.** What does the source list for `O=C(O)Cn1cc(CCc2nc3c(F)c(F)cc(F)c3s2)c2ccccc21`?
**A.** IC50 [1]: 0.008 µM; IC50 [2]: 11 µM

**Q.** With `O=C(O)Cc1nn(Cc2nc3cc(C(F)(F)F)ccc3s2)c(=O)c2ccccc12` [ZOPOLRESTAT] as the compound, how does the IC50 [2] read?
**A.** The IC50 was 38.6 µM.

**Q.** What about the inhibition in vivo at 10 mg/kg/day [9] of the same compound?
**A.** Its inhibition in vivo at 10 mg/kg/day is 9%.

**Q.** What about the inhibition in vivo at 10 mg/kg/day [19] of the same compound?
**A.** Its inhibition in vivo at 10 mg/kg/day is 80%.

**Q.** Which IC50 [1] does the source give for `O=C(O)Cn1cc(Cc2nc3cc(C(F)(F)F)ccc3s2)c2cc(Cl)ccc21` here?
**A.** Its IC50 is 0.13 µM.

**Q.** And the IC50 [2]?
**A.** The IC50 was 4.9 µM.

**Q.** Which IC50 [2] does the source give for `O=C(O)Cn1cc(Cc2nc3cc(C(F)(F)F)ccc3s2)c2ccc(Br)cc21` here?
**A.** Its IC50 is 3.4 µM.

**Q.** What does the source list for `COc1ccc2c(C(=S)N(C)CC(=O)O)cccc2c1C(F)(F)F` [TOLRESTAT]?
**A.** inhibition in vivo at 10 mg/kg/day [9]: 7%; inhibition in vivo at 10 mg/kg/day [19]: 27%

**Q.** Which IC50 [2] does the source give for `O=C(O)Cn1cc(Cc2nc3c(F)c(F)cc(F)c3s2)c2ccc(-c3ccccc3)cc21` here?
**A.** The IC50 was 6.1 µM.

**Q.** Which IC50 [1] does the source give for `O=C(O)Cn1cc(C(=O)c2nc3c(F)c(F)cc(F)c3s2)c2ccccc21` here?
**A.** Its IC50 is 1.6 µM.

**Q.** For `O=C(O)Cn1cc(Cc2nc3cccc(F)c3s2)c2ccccc21`, which IC50 [1] is on record?
**A.** Its IC50 is 0.055 µM.

**Q.** And the IC50 [2]?
**A.** Its IC50 is 18 µM.

**Q.** What does the source list for `O=C(O)Cn1c(=O)n(Cc2ccc(Br)cc2F)c(=O)c2ccc(Cl)cc21` [ZENARESTAT]?
**A.** IC50 [1]: 0.008 µM; IC50 [2]: 9.9 µM; inhibition in vivo at 10 mg/kg/day [9]: 2%; inhibition in vivo at 10 mg/kg/day [19]: 64%

**Q.** With `O=C(O)Cn1cc(Cc2nc3cc(F)ccc3s2)c2ccccc21` as the compound, how does the IC50 [2] read?
**A.** Its IC50 is 6.4 µM.

**Q.** With `O=C(O)Cn1cc(Cc2nc3ccc(Cl)cc3s2)c2ccccc21` as the compound, how does the IC50 [2] read?
**A.** Its IC50 is 2.1 µM.
